Experimental data from paper PMC10946275, “New imidazole-2-thiones linked to acenaphythylenone as dual DNA intercalators and topoisomerase II inhibitors: structural optimization, docking, and apoptosis studies” (Journal of Enzyme Inhibition and Medicinal Chemistry, 2024).
“And” between values parts separate entries of the source, which are not always exact repeats. Equal values may be shown once.

Tests used:
[1] = tested on: MCF-7 cells; assay: Cell cycle analysis (DNA flow cytometry, PI); conditions: for Phase of cell cycle arrest: MCF-7, compound at its IC50; for Cell cycle arrest (%) G0-G1 / Cell cycle arrest (%) G2/M / Cell cycle arrest (%) S: MCF-7, compound at its IC50, 24 h
Experimental: Cell cycle analysis: A FACS Calibur flow cytometer was used to measure the amount of DNA in the cell cycle analysis at 488 nm in accordance with the manufacturer’s recommendations. […] Cells were treated, rinsed twice, and then re-suspended in ice-cold PBS (phosphate buffer saline). After washing, 0.7 ml of 100% ethanol was added, and the mixture was then allowed to sit at 20 °C for 20 min. After washing, 500 μl of RNase was added, and then the mixture was incubated for 30 min. After that, PI was added, and the mixture was incubated without light for 30 min[22]^,[51].
3 Replica for each group Data was expressed using Mean ± SEM.
F: F for One way ANOVA test, Pairwise comparison bet. each 2 groups was done using Post Hoc Test (Tukey)
p: p value for comparing between the studied groups
p0: p value for comparing between Control and each other group
p1: p value for comparing between 5h and 5b
p2: p value for comparing between 5h and Dox
p3: p value for comparing between 5b and Dox
DNA content in the cell cycle analysis was quantified with the help ofa FACS Calibur flow
cytometer at 488 nm according to the manufacturer's instructions. Briefly, 2 × 10^5 cells/well were
cells were washed two times and resuspended in ice-cold phosphate buffer saline PBS. After
washing, 0.7 ml absolute ethanol was then added, followed by incubation at −20°C for 20 min.
After washing, 500 μl RNase was added, followed by incubation for 30 min. PI was then added,
followed by incubation for 30 min (light was avoided).

[2] = tested on: hepatocellular carcinoma (HepG2); assay: MTT cytotoxicity assay, HepG2; type: cell-based; conditions: Homo sapiens, 24 h treatment, read-out: IC50 against HepG2
Experimental: (§1) (Supplementary file). Compounds 5b and 5h were screened for their effects on the normal breast cell line MCF‐10a. Cells at a density of 1 × 104 were seeded in a 96‐well plate at 37 °C for 48 h under 5% CO2. After incubation, the cells were treated with different concentrations of the prepared molecules and incubated for 24 h. MTT dye was added after 24 h of drug treatment and incubated for 4 h at 37 °C. Also, 100 μl of dimethyl sulphoxide was added to each well to dissolve the purple formazan formed. The colour intensity of the formazan product, which represents the growth condition of the cells, was quantified using an enzyme‐linked immunosorbent assay (ELISA) plate reader at 570 nm. The experiments were carried out with at least three replicates and they were repeated at least three times.
(§2) All chemicals, solvents, media and kits were purchased from commercial suppliers.
(§3) In vitro anticancer screening […]
(§4) against three cancer cell lines namely: hepatocellular carcinoma (HepG2), human breast adenocarcinoma (MCF-7) and human colon cancer (HCT -116) utilizing MTT assay2. Compounds […]
(§5) 5b and 5h were screened for their effects on the normal breast cell line MCF‐10a. Cells at a density of 1 × 104 were seeded in a 96‐well plate at 37°C for 48 hr under 5% CO2. After incubation, the cells were treated with different concentrations of the prepared molecules and incubated for 24 hr.
(§6) MTT dye was added after 24 h of drug treatment and incubated for 4 h at 37°C. Also, 100 μl of dimethyl sulphoxide was added to each well to dissolve the purple formazan formed. The color intensity of the formazan product, which represents the growth condition of the cells, was quantified using an enzyme‐linked immunosorbent assay (ELISA) plate reader at 570 nm. The experiments were carried out with at least three replicates and they were repeated at least three […]
(§7) *: Statistically significant at p ≤ 0.05
(§8) Means with any Common letter (a-e) are not significant (OR Means with totally Different letters (a-e) are significant)

[3] = tested on: human colon cancer (HCT-116); assay: MTT cytotoxicity assay, HCT-116; type: cell-based; conditions: 24 h treatment, read-out: IC50 against HCT-116
Experimental: as §2, §3, §4, §5, §6, §7, §8

[4] = tested on: MCF-7 cells; assay: Annexin V-FITC/PI apoptosis induction analysis (flow cytometry); type: cell-based, human; conditions: MCF-7, compound at its IC50, 24 h
[5] = tested on: normal breast cell line (MCF-10a); assay: MTT cytotoxicity assay, normal breast cell line MCF-10a; type: cell-based; conditions: Homo sapiens, 24 h treatment, read-out: IC50 against MCF-10a (normal cell)
Experimental: as §1, §5, §6, §7
Means with any Common letter (a-e) are not significant (OR Means with totally Different letters (a-e) are significant) Annexin V-FITC/PI Apoptosis Induction Analysis 3
Apoptosis detection in MCf-7 cells was assessed using BioVision® annexin‐V‐FITC apoptosis detection kit according to the manufacturer's instructions and quantified by flow cytometry at 488

[6] = tested on: calf thymus DNA (ctDNA); assay: Terbium (Tb3+) luminescent biosensor detection of induced DNA damage; type: biochemical; conditions: for Tb luminescence enhancement (induced DNA damage): ctDNA incubated with compound 24 h, emission 545 nm, excitation 270 nm, compared with ctDNA-Tb mixture; for Concentration at which Tb luminescence stops increasing (maximum DNA damage) / LOD (limit of detection; minimum concentration inducing detectable damage in ctDNA) / LOQ (limit of quantitation): ctDNA, 24 h incubation
From the text: Luminescence studies were accomplished in order to examine the possible DNA interaction with the studied compounds. Many luminescent biosensors are reported in literature for studying the possibility of DNA interaction with small molecules. […] Figure 5 presents a schematic diagram for the fluorometric detection of the induced DNA damage using Tb biosensor. Tb^3+ ion in the Tb luminescent probe is a trivalent lanthanide cation having low intrinsic luminescence in aqueous solutions[45]^,[46]. When Tb biosensor is added to a solution of DNA, it interacts differently with double-stranded DNA (dsDNA) and single-stranded DNA (ssDNA). With dsDNA, Tb^3+ ions are electrostatically attracted to the negatively charged phosphate backbone of the DNA. […] Therefore, the assessed compound damages dsDNA, ssDNA sites would be formed opposite to the site of damage and Tb^3+ would directly coordinate to the unpaired nucleobases in this single-stranded site.
For investigating the DNA interaction potential of the fourteen studied compounds, calf thymus DNA (ctDNA) was incubated with each compound for 24 h and then Tb was added to each mixture. Doxorubicin (DOX), a commonly used reference for DNA damaging agent was used and treated the same condition as the studied compounds. Tb luminescent intensity was measured at λmax = 545 nm after excitation at λmax = 270 nm.
Several concentrations within the range of 0.1 pM–200.0 μM of each of the studied compounds were incubated with ctDNA for 24 h. After which, Tb solution was added to aliquots of such mixtures and the luminescence intensity was recorded. Figure 7 presents Tb luminescence intensity as a function of the compound concentration for various compound/ctDNA/Tb mixtures. At minimum concentration of the studied compounds, minimum Tb luminescence was recorded. This reflects that the DNA molecule is undamaged, intact and acquiring a double helical structure. In this conformation, Tb ions are electrostatically attracted to the negatively charged DNA-phosphate backbone showing no increase in its luminescence. For solutions with higher concentrations of compounds 5b, 5h, and 5j (Figure 7a,c,and d). Tb fluorescence increased proportionally with the concentration until a concentration of 100 and 60 μM for compounds 5b, 5h, and 5j, respectively, where no further increase in the fluorescence occurs. This reflects that more DNA damage is induced with increasing concentrations of the three compounds. At concentrations higher than 100 and 60 μM for compounds 5b, 5h, and 5j, respectively, Tb luminescence remains constant at high fluorescence levels. […] Table 1 illustrates the analytical parameters elucidated as shown in Figure 7 for the quantification of the induced DNA damage by the studied compounds. The linearity parameters were calculated from the calibration curve in Figure 7-inset in order to obtain the minimum concentration of the studied compounds that would induce DNA damage.
Fluorescence measurements: Fluorescence spectra were measured between 290 and 800 nm with excitation at 270 nm of 100 µL solutions in a 1 cm path length Suprasil quartz fluorescence cuvette.
The PerkinElmer LS 55 fluorescence spectrophotometer was used to measure the fluorescence. After 24 h of incubation in buffer solution (40 mM Tris, 10 mM NaCl, pH 7.5), aliquots of each DNA-Compound mixture were combined with TbCl3 to confirm DNA damage. The final concentrations were […] ctDNA, 3 mM TbCl3, and 50 µM of each compound in buffer solution (40 mM Tris, 10 mM NaCl, pH 7.5). Calf thymus DNA (ctDNA) was combined with various quantities of each substance, ranging from 0.1 pM to 200 µM, for the experiment. The ultimate concentrations of […] ctDNA and 3 mM were achieved by adding Tb3 + solution to the ctDNA/compound combinations in buffer solution (40 mM Tris, 10 mM NaCl, pH 7.5) after 24 h of incubation.[44]
All chemicals, solvents, media and kits were purchased from commercial suppliers. […]

[7] = tested on: human breast adenocarcinoma (MCF-7); assay: MTT cytotoxicity assay, MCF-7; type: cell-based; conditions: for IC50: Homo sapiens, MCF7, MTT, 24 h treatment, read-out: IC50 against MCF-7; for folds more active than doxorubicin: MCF-7; for Selectivity Index (SI): against MCF-7, relative to normal MCF-10a
Experimental: as §1, §2, §3, §4, §5, §6, §7, §8

[8] = molecular target: T1, human DNA topoisomerase II-β (TOPII-β) (Homo sapiens, UniProt Q02880); assay: In vitro topoisomerase II inhibitory assay (ELISA kit); type: biochemical; conditions: ELISA kit MBS#942146; read-out: IC50 against topo II enzyme
T1 construct: own knowledge) MBS#942146
From the text: Doxorubicin was used as a positive control. […] (Supplementary file).
SEM: Standard error of mean
as §7
Means with any Common letter (a-d) are not significant (OR Means with totally Different letters (a-d) are significant)
Doxorubicin was used as a positive control.

T1 sequence (Q02880 whole entry): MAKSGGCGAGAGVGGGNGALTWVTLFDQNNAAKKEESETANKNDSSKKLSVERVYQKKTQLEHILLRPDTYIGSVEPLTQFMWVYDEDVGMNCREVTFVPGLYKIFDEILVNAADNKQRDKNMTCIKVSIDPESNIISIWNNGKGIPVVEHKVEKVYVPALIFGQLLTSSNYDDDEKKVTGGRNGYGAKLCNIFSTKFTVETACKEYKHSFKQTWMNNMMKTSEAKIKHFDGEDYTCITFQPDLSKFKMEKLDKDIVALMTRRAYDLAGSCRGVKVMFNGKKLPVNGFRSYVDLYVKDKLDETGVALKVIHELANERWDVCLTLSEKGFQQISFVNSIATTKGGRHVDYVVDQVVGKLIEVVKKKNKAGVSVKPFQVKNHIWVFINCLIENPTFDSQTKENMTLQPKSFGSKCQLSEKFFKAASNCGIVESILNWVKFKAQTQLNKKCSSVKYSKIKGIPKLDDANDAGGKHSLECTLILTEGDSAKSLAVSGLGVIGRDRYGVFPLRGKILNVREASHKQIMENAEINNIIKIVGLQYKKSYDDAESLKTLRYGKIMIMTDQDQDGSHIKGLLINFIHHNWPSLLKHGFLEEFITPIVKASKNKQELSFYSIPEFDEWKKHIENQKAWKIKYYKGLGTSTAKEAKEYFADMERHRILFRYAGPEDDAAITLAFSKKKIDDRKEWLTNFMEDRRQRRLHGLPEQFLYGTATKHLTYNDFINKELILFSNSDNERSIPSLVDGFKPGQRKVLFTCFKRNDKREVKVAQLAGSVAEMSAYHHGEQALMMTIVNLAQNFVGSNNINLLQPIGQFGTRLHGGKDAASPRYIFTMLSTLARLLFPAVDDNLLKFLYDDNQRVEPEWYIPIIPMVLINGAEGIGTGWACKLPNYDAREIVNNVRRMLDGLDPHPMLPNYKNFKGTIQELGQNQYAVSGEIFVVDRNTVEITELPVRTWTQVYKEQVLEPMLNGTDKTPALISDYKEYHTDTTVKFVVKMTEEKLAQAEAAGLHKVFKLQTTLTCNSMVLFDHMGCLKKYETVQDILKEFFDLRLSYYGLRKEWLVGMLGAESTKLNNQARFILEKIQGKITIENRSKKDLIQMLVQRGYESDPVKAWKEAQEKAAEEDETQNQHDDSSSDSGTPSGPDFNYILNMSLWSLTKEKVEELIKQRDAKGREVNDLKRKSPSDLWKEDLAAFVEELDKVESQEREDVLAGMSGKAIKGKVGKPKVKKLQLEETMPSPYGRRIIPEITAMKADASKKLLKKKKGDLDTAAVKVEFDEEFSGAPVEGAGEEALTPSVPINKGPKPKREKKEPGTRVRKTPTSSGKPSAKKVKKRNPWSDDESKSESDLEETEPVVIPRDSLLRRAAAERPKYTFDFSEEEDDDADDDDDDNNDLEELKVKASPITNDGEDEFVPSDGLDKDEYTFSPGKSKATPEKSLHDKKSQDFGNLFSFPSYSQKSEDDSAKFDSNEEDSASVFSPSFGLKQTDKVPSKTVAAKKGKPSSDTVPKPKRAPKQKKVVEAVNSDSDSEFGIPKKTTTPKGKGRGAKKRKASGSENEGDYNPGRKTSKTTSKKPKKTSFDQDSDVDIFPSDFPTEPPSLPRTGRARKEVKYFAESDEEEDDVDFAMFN

| Compound | melting point [°C] | Phase of cell cycle arrest [1] | Cell cycle arrest (%) G0-G1 [1] [%] | Cell cycle arrest (%) G2/M [1] [%] | Cell cycle arrest (%) S [1] [%] | IC50 [2] [µM] | IC50 [3] [µM] | Apoptosis results: Early apoptosis [4] [%] | Apoptosis results: Late apoptosis [4] | Apoptosis results: Necrosis [4] [%] | Apoptosis results: Total [4] [%] | IC50 [5] [µM] | Tb luminescence enhancement (induced DNA damage) [6] | Concentration at which Tb luminescence stops increasing (maximum DNA damage) [6] [µM] | LOD (limit of detection; minimum concentration inducing detectable damage in ctDNA) [6] [nM] | LOQ (limit of quantitation) [6] [nM] | IC50 [7] [µM] | folds more active than doxorubicin [7] [folds] | Selectivity Index (SI) [7] | IC50 [8] [µM] |
| --- | --- | --- | --- | --- | --- | --- | --- | --- | --- | --- | --- | --- | --- | --- | --- | --- | --- | --- | --- | --- |
| O=C1C(=Nn2cc(-c3ccccc3)n(-c3ccccc3)c2=S)c2cccc3cccc1c23 [5b, 2-((3,4-Diphenyl-2-thioxo-2,3-dihydro-1H-imidazol-1-yl)imino)acenaphthylen-1(2H)-one] | 240 to 242 | S phase | 52.7 ± 0.30 | 13.4 ± 0.41 | 33.8 ± 0.70 | 7.4 | 17.1 | 15.3 ± 0.50 | 22.7 ± 0.43% and 22.69% | 8.7 ± 0.44 | 46.6 ± 0.57 | 89.8 | significant enhancement | 100 | 7.78 | 25.9 | 5.11 | 1.5 | 17.58 | – |
| O=C1C(=Nn2cc(-c3ccc(Cl)cc3)n(-c3ccccc3)c2=S)c2cccc3cccc1c23 [5h, 2-((4-(4-chlorophenyl)-3-phenyl-2-thioxo-2,3-dihydro-1H-imidazol-1-yl)imino)-acenaphthylen-1(2H)-one] | 260 to 262 | S phase | 48.6 ± 0.73 | 9.7 ± 0.36 | 41.7 ± 0.39 | 4.93 | 43.5 | 16.5 ± 0.64 | 28.4 ± 0.62% and 28.52% | 7.5 ± 0.68 | 52.5 ± 0.68 | 131 | significant enhancement | 100 | 7.14 | 23.8 | 2.65 | 3 | 49.27 | 0.34 |
